Laboratory results from patent publication US20110230472A1, “RING-FUSED AZOLE DERIVATIVE HAVING PI3K-INHIBITING ACTIVITY” (Shionogi & Co., Ltd., priority 2008, published 2011).

molecular target: PI-3 kinase γ (Homo sapiens, UniProt P48736); assay: PI3Kγ inhibitory activity, PI3-kinase HTRF assay (inhibition ratio); type: biochemical; conditions: 0.5 h; compound at 10 μmol/L
How it was run: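 Single-concentration inhibition ratio (50 or 10 μmol/L compound) versus no-compound (100%) and no-enzyme (0%) wells. Reaction: PI-3 kinase γ, PIP2, ATP, MgCl2/DTT, 30 min at RT after 10 min preincubation. Read-out: HTRF 665/620 nm after 18 h detection.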

Chain of PI-3 kinase γ (P48736 whole entry): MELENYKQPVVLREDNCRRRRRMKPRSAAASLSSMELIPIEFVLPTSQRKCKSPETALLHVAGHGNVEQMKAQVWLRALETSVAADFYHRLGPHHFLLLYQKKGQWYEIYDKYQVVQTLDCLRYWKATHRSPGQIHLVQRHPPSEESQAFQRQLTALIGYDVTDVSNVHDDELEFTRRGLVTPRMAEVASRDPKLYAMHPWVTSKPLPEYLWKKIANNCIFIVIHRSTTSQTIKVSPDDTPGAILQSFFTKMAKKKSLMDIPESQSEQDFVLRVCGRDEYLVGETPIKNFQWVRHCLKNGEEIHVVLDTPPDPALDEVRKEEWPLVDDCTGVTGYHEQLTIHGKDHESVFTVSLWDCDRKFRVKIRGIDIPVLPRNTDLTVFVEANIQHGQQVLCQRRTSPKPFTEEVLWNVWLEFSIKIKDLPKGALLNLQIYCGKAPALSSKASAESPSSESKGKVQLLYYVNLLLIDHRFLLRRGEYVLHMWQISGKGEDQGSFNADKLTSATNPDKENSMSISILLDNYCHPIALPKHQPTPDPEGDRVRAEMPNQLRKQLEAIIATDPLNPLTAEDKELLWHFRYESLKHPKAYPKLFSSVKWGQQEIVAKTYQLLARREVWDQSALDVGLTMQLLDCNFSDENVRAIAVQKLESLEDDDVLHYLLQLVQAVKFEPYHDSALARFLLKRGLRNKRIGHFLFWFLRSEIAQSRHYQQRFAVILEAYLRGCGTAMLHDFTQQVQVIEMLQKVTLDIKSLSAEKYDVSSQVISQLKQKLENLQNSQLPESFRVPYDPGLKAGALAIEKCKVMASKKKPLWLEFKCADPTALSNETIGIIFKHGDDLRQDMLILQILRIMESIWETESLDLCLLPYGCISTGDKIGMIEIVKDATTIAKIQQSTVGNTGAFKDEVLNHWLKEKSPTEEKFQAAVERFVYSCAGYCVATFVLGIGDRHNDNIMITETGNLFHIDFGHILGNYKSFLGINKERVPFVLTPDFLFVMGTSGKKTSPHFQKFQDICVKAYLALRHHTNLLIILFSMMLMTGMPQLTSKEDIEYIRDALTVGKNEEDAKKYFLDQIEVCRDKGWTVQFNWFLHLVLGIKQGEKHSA

inhibition at 10 µM [%] | Compound
≥ 95 | CNC(=O)Nc1nc2c(s1)CN(c1cc(N(C)C)nc(OC)n1)CC2 [Compound I-362]
≥ 95 | COC(=O)Nc1cc[nH]c1C(=O)Nc1cc2n(n1)CCN2c1cccc(OC)c1 [Compound I-364]
86 | CN1CCc2cc(N3CCn4nc(NC(=O)Nc5cccs5)cc43)ccc2C1=O [Compound I-367]
95 | CN1CCc2cc(N3CCn4nc(NC(=O)Nc5ccsc5)cc43)ccc2C1=O [Compound I-368]
84 | CN1CCc2cc(N3CCn4nc(NC(=O)NCc5ccccc5)cc43)ccc2C1=O [Compound I-370]
≥ 95 | CN1CCc2cc(N3CCn4nc(NC(=O)c5ccc(N6CCCC6)s5)cc43)ccc2C1=O [Compound I-371]
≥ 95 | CN1CCc2cc(N3CCn4nc(NC(=O)c5cnc(NC(=O)OC(C)(C)C)o5)cc43)ccc2C1=O [Compound I-376]
≥ 95 | CN1CCc2cc(N3CCn4nc(NC(=O)c5cnc(Br)s5)cc43)ccc2C1=O [Compound I-377]
≥ 95 | CN1CCc2cc(N3CCn4nc(NC(=O)c5cnc(N)o5)cc43)ccc2C1=O [Compound I-381]
91 | CN1CCc2cc(N3CCn4nc(NC(=O)c5cc6cccnc6[nH]5)cc43)ccc2C1=O [Compound I-385]
≥ 95 | CN1CCc2cc(N3CCn4nc(NC(=O)c5ccc(N)nc5)cc43)ccc2C1=O [Compound I-386]
≥ 95 | CN1CCc2cc(N3CCn4nc(NC(=O)c5ccc(C(=O)O)s5)cc43)ccc2C1=O [Compound I-391]
≥ 95 | COc1cc(N2CCc3nc(NC(=O)N/C(C)=C\C(=O)NC(C)(C)C)sc3C2)nc(OC)n1 [Compound I-392]
76 | CN1CCc2cc(N3CCn4nc(NC(=O)c5csc(Br)c5)cc43)ccc2C1=O [Compound I-396]
≥ 95 | COC(=O)c1csc(C(=O)Nc2cc3n(n2)CCN3c2ccc3c(c2)CCN(C)C3=O)c1 [Compound I-399]
93 | CN1CCc2cc(N3CCn4nc(NC(=O)c5cc(C(=O)O)cs5)cc43)ccc2C1=O [Compound I-401]
78 | CN1CCc2cc(N3CCn4nc(NC(=O)c5ccc(C(N)=O)s5)cc43)ccc2C1=O [Compound I-404]
≥ 95 | CNC(=O)c1ccc(C(=O)Nc2cc3n(n2)CCN3c2ccc3c(c2)CCN(C)C3=O)s1 [Compound I-406]
≥ 95 | COCCNC(=O)c1ccc(C(=O)Nc2cc3n(n2)CCN3c2ccc3c(c2)CCN(C)C3=O)s1 [Compound I-410]
≥ 95 | CN1CCc2cc(N3CCn4nc(NC(=O)c5ccc(C(=O)NCC(=O)OC(C)(C)C)s5)cc43)ccc2C1=O [Compound I-411]
87 | CN1CCc2cc(N3CCn4nc(NC(=O)c5csc(C(=O)OC(C)(C)C)c5)cc43)ccc2C1=O [Compound I-413]
93 | CN1CCc2cc(N3CCn4nc(NC(=O)c5csc(C(=O)O)c5)cc43)ccc2C1=O [Compound I-418]
83 | CC(C)NC(=O)c1cc(C(=O)Nc2cc3n(n2)CCN3c2ccc3c(c2)CCN(C)C3=O)cs1 [Compound I-419]
88 | CC(C)c1cc(C(=O)Nc2cc3n(n2)CCN3c2ccc3c(c2)CCN(C)C3=O)cs1 [Compound I-427]
90 | CC(C)NS(=O)(=O)c1cc(C(=O)Nc2cc3n(n2)CCN3c2ccc3c(c2)CCN(C)C3=O)cs1 [Compound I-428]
84 | COc1cc(N2CCc3nc(NC(=O)Nc4ccccc4Cl)sc3C2)nc(OC)n1 [Compound I-430]

same assay, conditions: 0.5 h; compound at 50 μmol/L

inhibition at 50 µM [%] | Compound
81 | CN1CCc2cc(N3CCn4nc(NC(=O)c5ccc(Br)s5)cc43)ccc2C1=O [Compound I-365]
≥ 95 | CN1CCc2cc(N3CCn4nc(NC(=O)NC5CCCC5)cc43)ccc2C1=O [Compound I-369]
84 | CN1CCc2cc(N3CCn4nc(NC(=O)C5CCCO5)cc43)ccc2C1=O (stereo not drawn) [Compound I-372]
82 | CN1CCc2cc(N3CCn4nc(NC(=O)c5csc6ccccc56)cc43)ccc2C1=O [Compound I-373]
